The values that follow come from publication PMC4734667 (PLoS ONE, 2016).

≈ marks a conversion by molar mass, not a printed value. Where “and” joins values, the source holds several entries; their conditions need not be identical. Identical values can stand only once. Entries after “also recorded” stand apart in the source; their conditions may differ.

For series [1], the target named is NMDA receptor (Rattus norvegicus, UniProt P35439+Q00959). Briefly: NMDA receptor-mediated fEPSPs in rat hippocampal slices (CA1, MEA). The format is cell-based. The conditions noted are these: 30 μM D-AP5.
Chain of NMDA receptor (Q00959 23-1464, other chains not shown): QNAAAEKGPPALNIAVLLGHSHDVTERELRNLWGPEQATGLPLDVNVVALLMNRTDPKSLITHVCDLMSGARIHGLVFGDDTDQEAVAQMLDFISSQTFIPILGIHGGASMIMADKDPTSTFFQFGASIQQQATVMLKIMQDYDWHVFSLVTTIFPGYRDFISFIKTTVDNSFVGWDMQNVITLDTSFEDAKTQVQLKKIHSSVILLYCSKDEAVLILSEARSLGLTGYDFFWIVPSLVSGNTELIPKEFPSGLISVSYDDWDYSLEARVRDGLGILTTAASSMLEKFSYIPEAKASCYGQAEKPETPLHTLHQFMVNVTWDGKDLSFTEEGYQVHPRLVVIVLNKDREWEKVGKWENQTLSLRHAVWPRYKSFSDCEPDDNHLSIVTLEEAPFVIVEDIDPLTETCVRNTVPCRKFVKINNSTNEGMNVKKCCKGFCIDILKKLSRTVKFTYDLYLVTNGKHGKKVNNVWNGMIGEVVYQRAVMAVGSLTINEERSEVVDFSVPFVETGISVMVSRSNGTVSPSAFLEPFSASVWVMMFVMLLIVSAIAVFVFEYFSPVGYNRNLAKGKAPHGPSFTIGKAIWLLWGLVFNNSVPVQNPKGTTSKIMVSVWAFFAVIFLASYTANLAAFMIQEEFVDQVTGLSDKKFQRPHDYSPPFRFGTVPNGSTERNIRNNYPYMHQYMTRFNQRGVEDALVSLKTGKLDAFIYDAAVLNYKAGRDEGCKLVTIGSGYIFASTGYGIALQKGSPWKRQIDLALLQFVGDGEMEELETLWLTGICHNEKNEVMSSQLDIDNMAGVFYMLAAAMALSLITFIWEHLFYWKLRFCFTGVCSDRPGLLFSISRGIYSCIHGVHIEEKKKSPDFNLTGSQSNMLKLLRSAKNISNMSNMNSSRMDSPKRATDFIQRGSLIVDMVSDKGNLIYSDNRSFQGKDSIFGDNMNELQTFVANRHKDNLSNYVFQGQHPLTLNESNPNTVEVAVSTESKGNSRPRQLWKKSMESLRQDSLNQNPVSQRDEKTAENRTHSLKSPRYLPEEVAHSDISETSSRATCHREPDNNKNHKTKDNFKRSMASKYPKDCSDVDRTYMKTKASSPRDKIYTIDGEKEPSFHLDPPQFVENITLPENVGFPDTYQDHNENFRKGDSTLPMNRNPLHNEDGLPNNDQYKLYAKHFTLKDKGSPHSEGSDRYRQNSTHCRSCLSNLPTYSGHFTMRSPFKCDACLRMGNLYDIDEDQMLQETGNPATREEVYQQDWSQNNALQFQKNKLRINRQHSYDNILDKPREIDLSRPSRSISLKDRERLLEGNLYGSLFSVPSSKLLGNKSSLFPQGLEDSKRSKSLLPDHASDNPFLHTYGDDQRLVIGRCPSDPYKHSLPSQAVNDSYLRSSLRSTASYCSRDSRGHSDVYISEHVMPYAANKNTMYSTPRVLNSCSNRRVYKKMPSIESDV
Excerpt: Multi-electrode arrays (MEA) technology was used in the recording of hippocampal slices from 3 to 4 week-old male and female Sprague- Dawley rats (Elevage Janvier, Le Genest St Isle, France).
The rats were sacrificed by fast decapitation, without previous anesthesia. The brain was quickly removed and soaked in ice-cold oxygenated buffer with the following composition in mM: KCl 2, NaH2PO4 1.2, MgCl2 7, CaCl2 0.5, NaHCO3 26, glucose 11, and saccharose 250. […] Slice were placed in the center of a 3D-MEA to cover the electrode field (1.4 mm^2) and then immobilized with a netting ballast. […] NBQX (10 μM) was added to inhibit AMPA receptors. The bath was ground connected with a 1 M NaCl-Agar bridge.
All data were recorded with a MEA set-up from Multi Channel Systems MCS GmbH (Reutlingen, Germany) composed of a 4-channel stimulus generator and a 60-channel amplifier head-stage connected to a 60-channel A/D card. […]
Following visual observation through a CCD camera, one of the electrodes identified in the CA3 field (at CA3/CA1 border) was disconnected from its amplifier and used to stimulate Schaeffer collaterals. […] Simultaneous evoked field potentials were recorded from 3 to 6 electrodes in the CA1 stratum radiatum region, corresponding to the physiological propagation of the stimulus along the Schaffer collateral pathway. […]
The target of series [2] is T1, 5-HT1B (Rattus norvegicus, UniProt P28564).
T1 construct: CEREP (panel CEREP-80)
T1 sequence (P28564 whole entry): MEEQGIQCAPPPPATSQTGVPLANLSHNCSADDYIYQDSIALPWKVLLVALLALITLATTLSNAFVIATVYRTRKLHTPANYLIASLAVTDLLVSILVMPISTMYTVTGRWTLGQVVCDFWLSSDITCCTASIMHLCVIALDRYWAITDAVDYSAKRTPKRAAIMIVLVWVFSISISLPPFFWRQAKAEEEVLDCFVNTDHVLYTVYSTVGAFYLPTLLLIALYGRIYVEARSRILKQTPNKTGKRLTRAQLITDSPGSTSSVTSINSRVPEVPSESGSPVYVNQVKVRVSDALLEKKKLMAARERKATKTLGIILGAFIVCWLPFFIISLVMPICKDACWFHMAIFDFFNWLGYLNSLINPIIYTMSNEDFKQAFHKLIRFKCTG
Briefly: CEREP-80 panel ligand binding, 5-HT1B. The settings on record: read-out: inhibition of 5-HT1B antagonist binding.

The target of series [3] is T2, 5-HT2A (Homo sapiens, UniProt P28223).
T2 construct: CEREP (panel CEREP-80)
T2 sequence (P28223 whole entry): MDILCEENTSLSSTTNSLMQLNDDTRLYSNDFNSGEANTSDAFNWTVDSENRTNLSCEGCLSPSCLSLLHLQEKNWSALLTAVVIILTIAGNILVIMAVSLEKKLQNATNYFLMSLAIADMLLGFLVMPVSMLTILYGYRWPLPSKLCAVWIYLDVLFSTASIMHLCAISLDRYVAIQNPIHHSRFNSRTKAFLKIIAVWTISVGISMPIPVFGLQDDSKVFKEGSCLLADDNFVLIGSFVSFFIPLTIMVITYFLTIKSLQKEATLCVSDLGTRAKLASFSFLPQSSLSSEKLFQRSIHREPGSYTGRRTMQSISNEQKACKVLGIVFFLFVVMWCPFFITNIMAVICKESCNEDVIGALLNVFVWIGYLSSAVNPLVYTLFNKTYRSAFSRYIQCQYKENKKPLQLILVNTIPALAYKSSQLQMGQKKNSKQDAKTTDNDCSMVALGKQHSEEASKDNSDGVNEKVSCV
The series is described as follows: CEREP-80 panel ligand binding, 5-HT2A. The conditions noted are these: read-out: inhibition of 5-HT2A agonist binding.

In series [4] the target is T3, EP4 (Homo sapiens, UniProt P35408).
T3 construct: CEREP (panel CEREP-80)
T3 sequence (P35408 whole entry): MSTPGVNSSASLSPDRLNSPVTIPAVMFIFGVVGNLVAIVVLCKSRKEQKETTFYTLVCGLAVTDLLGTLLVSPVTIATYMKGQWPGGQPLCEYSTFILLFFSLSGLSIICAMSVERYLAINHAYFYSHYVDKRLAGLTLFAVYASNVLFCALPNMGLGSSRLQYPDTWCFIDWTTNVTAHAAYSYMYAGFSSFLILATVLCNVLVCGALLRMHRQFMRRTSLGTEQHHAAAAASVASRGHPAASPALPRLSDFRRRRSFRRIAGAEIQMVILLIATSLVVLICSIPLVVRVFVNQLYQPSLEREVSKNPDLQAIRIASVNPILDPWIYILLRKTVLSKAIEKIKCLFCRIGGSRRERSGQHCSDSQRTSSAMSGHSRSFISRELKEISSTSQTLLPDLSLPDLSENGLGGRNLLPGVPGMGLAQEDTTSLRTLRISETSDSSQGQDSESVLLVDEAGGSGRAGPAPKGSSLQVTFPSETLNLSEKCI
The series is described as follows: CEREP-80 panel ligand binding, EP4. The settings on record: read-out: inhibition of EP4 agonist binding.

Series [5] has as its system panel of receptors and enzymes relevant to CNS pharmacology (CEREP-80). Briefly: CEREP-80 panel ligand binding, remainder of the panel. The conditions noted are these: 1 μM. From the text: […]. […] […]
Series [6] relates to AMPA receptor. Briefly: AMPA receptor-mediated synaptic currents of pyramidal neurons in mouse visual cortex slices. The class given is cell-based. The conditions noted are these: in the presence of 50 μM compound; controls 118±16 pA. Here is the method: […]. […] […].
Wild-type (WT) mice and GRIN2A knock-out (KO) male mice were bred in house at Boston Children’s Hospital. The GRIN2A-KO colony was derived from mice originally obtained from M. Mishina (1995, University of Tokyo, Japan). All procedures using these mice were approved by the Boston Children’s Hospital Institutional Animal Care and Use Committee. Methods used were previously described in [30] and are summarized below.
Coronal visual cortical slices ([…]) were prepared from postnatal day (P)22–31 male mice following decapitation under isoflurane anesthesia. […]
Layer 2/3 pyramidal neurons were selected based on morphology under infrared differential interference contrast microscopy and their identity confirmed from a brief train of action potentials recorded prior to initiating voltage-clamp recordings. […] All data were acquired and analyzed using custom- made procedures in Igor-Pro Software (WaveMetrics, Lake Oswego, Oregon).
To estimate the relative contribution of NMDA and AMPA receptors to the synaptic current, the amplitude was measured at the time of the peak current at -100 mV for the AMPA receptor-mediated current and at the time point after the current at -100 mV had decayed to less than 5% of its peak amplitude for the NMDA receptor-mediated current. […]

Series [7] in a line: Kinetic solubility. The format is physicochemical. The conditions noted are these: phosphate buffered saline, aqueous buffer, kinetic from dmso stock; in solution by HPLC after dissolution in DMSO and addition to saline. Here is the method: Compounds were prepared as stock solutions at 20 mM in DMSO and diluted in DMSO to give a range of test concentrations 100-fold greater than final. Compounds were diluted 100-fold into phosphate buffered saline and incubated during mild shaking for 90 min at room temperature. Solutions were filtered through multiscreen solubility filter plate and the filtrate analyzed for compound concentration by HPLC-UV/PDA or LC-MS/MS.

Series [8] is described as follows: Stability in pooled human liver microsomes. The class given is in vitro ADME. The conditions noted are these: pH 7.4, 1 μM compound, read-out: HLM t½. Here is the method:
Human liver microsomes were prepared from pooled cryopreserved human hepatocytes (HEP10™, catalog number HMCS10, lot # HuE106, Life Technologies Corporation, Grand Island, NY). According to the vendor, the liver cells from lot HuE106 were derived from tissue obtained from accredited institutions. Consent was obtained by these institutions from the donors or the donor’s legal next of kin, for use of the tissue and its derivatives for research purposes. Microsomes were diluted into 66.7 mM potassium phosphate buffer (pH 7.4) to an approximate concentration of 0.5 mg/mL of microsomal protein. Test compounds (1 μM) were pre-incubated with the microsomes for 5 min at 37°C and then the reaction initiated by addition of […]. After different times up to 30 min, the reactions were quenched, clarified by centrifugation and remaining compound quantified by LC-MS/MS.
(Liver microsomes are vesicles of endoplasmic reticulum, rich in cytochrome P450 enzymes.)

Series [9] concerns MDR1. Briefly: in vitro. The conditions noted are these: dog, MDCK-MDR1; for Papp A→B: compound added on apical side (A-B), read-out: MDCK A-B permeability; for Papp B→A: compound added on basal side (B-A), read-out: MDCK B-A permeability. The format is in vitro ADME. How it is done:
MDCK cells transfected with MDR1 were maintained in monolayer culture for 3–4 days in 24-well transporter plates. Cultures with average TEER values of 600–800 Ohm x cm^2 were utilized for experimentation. Test compound was added to either the apical or basal membrane chamber and then efflux across the monolayer was monitored by quantifying compound with LC-MS/MS.

Series [10] concerns uninjected oocytes. The series is described as follows: Endogenous currents in control (uninjected) oocytes. The format is cell-based, Xenopus. The conditions noted are these: concentrations up to 10 μM.
Description: The cells were then gently aspirated with a Pasteur pipette to remove the follicular tissue; this was followed by washing three times with OR-2 to remove all traces of collagenase. The oocytes were then washed in ND-96 (96 mM NaCl, 2 mM KCl, 1.8 mM CaCl2, 1 mM MgCl2, 5 mM HEPES, 50 ng/L gentamycin, 100 units/ml penicillin and 100 μg/ml streptomycin; pH 7.6) three times and this was followed by incubation in ND-96 at room temperature with mild agitation for 15 minutes; subsequently they were stored for at least 2 hours at 16°C before sorting and selection for injection. Oocytes selected for injection were incubated overnight in ND-96 at 16°C.
Electrodes were filled with 3 M KCl and had resistances that ranged from 0.2–1 MΩ. All measurements were made at a holding potential of -40 mV. Cells were continuously perfused with oocyte recording solution containing 90 mM NaCl, 1 mM KCl, 0.5 mM BaCl2, and 10 mM HEPES (Ph 7.4). […] Co-agonists were applied until a plateau was reached, and test compounds were then added in the continued presence of co-agonists until a new plateau was reached. […] Fraction of current remaining was calculated as [(current in presence of test compound–background current) / (co-agonist current–background current)] and IC50 values were computed using Prism 6.0 (Graphpad).
The subject of series [11] is NMDA receptor (NMDA + glycine evoked currents). Briefly: Whole-cell manual patch clamp of rat cortical neurons in primary culture. The class given is cell-based. The settings on record: 10 μM compound; NMDA 100 μM + glycine 10 μM; +40 mV; mean ± SEM. (In patch-clamp work, channel activity is measured electrically.)
Excerpt: Cortical neurons isolated from E18 rat embryos and cultured for two weeks were examined in whole-cell manual patch clamp experiments.
Cryopreserved E-18 rat cortical neurons (GIBCO A10840-02) were purchased from Life Technologies Italia (Monza, Italy).
Cortical neurons were thawed and plated at 5x10^4 or 10x10^4 cells/well in 35 x 100 mm tissue culture dishes containing poly-D-lysine treated glass coverslips, and maintained in the media and conditions recommended by the manufacturer for 13–15 days. […] Glycine (10 μM) was added in the extracellular solution or in the NMDA solution. Cells were patch clamped in the whole-cell configuration with a holding potential of -70 mV stepping once every minute to +20 or +40 mV for 10 s. Starting 1.5 s after each voltage step, 100 μM NMDA plus 10 μM glycine was applied using rapid local perfusion (RSC-200, Bio-Logic Science Instruments, Claix, France). Currents were evaluated at peak during the NMDA application, and current inhibition was computed using Prism software (GraphPad) once steady state was achieved.

Consider `NC(CCCP(=O)(O)O)C(=O)O` [D-AP5], for which the “block of fEPSPs by D-AP5 at the conclusion of each experiment” value in [1] is on record as “completely blocked”.
The inhibition is how much of the control response was suppressed. Broadly, the solubility is the dissolved amount per volume that the medium holds. Read a low solubility as little dissolved substance. On to `Cc1ncc(CNC(=O)c2cnc(CNS(=O)(=O)c3ccc(F)c(Cl)c3)cn2)s1` [MPX-004, 5-(((3-chloro-4-fluorophenyl)sulfonamido)methyl)-N-((2-methylthiazol-5-yl)methyl)pyrazine-2-carboxamide], for which the inhibition at 1 µM in [2] was 35%; in series [3], 31%; in [4], 27%. Moreover, the “effects on binding of ligands in the remainder of the panel” value in [5] is reported as “less than 25%”. Besides, in series [6], the “AMPA receptor-mediated synaptic currents” value stood at 118±21 pA. In series [7], this compound registered a solubility at 90 min of 16 µM (≈ 7.29 µg/mL). In series [8], the half-life at 1 μM was 53 min. Moreover, the Papp A→B in series [9] stood at 17.3 ×10⁻⁶ cm/s. Also, the Papp B→A in series [9] is 66.1 ×10⁻⁶ cm/s.
For `Cc1ncc(CNC(=O)c2cnc(CNS(=O)(=O)c3ccc(F)c(F)c3)c(C)n2)s1` [MPX-007], in [10], the “inhibition of currents in control (uninjected) oocytes” value was “no effect; also recorded: No inhibition”. Further, in [7], the solubility at 90 min is 68 µM (≈ 30.8 µg/mL). Also, the half-life at 1 μM in series [8] came out at 63 min. In series [9], the Papp A→B amounted to 14.2 ×10⁻⁶ cm/s and the Papp B→A stood at 76.8 ×10⁻⁶ cm/s.
With `O=C(NNC(=O)c1ccc(CNS(=O)(=O)c2ccc(F)c(Cl)c2)cc1)c1ccccc1` [TCN-201, 3-chloro-4-fluoro-N-[4-[[2-(phenylcarbonyl)hydrazino]carbonyl]benzyl]benzenesulfonamide, reference compound], the solubility at 90 min in series [7] was found to be 8 µM (≈ 3.7 µg/mL). For the same compound, the half-life at 1 μM in [8] is 19 min. Moreover, in series [9], the Papp A→B was found to be 7.5 ×10⁻⁶ cm/s and the Papp B→A is 58.9 ×10⁻⁶ cm/s.
For Ro 25–6981, the “block of NMDA + glycine evoked currents in rat cortical neurons” value in [11] was 72 ± 5% and ~ 70%.
